Data set [1] relates to binge ethanol consumption. In words: Binge ethanol consumption, minocycline derivatives (FIGS. 8C to 15C). Format: in vivo. To be noted: figure legend only, values not given.
In a further data set the test system is E. coli. In words: E. coli zone of inhibition (ZOI) and recovered colony forming units (CFU) per disk. Format: cell-based. As to conditions: dose response. How it is done: Minocycline and two acetylated derivatives, CMM1 (B) and CMM2 (Y), were tested in a dose response manner for A) zone of inhibition (ZOI) and B) recovered colony forming units (CFU) per disk.

Data set [2] concerns Drinking In the Dark (DID) murine model of binge drinking. In words: Drinking In the Dark (DID) murine model of binge drinking. Format: in vivo, mice. To be noted: 0, 25, 35, 50 and 100 mg/kg p.o. vs control; n=4/group; p=0.004; dose-dependent. How it is done: Using a standard Drinking In the Dark (DID) murine model of binge drinking, we tested the effect of 0, 25, 35, 50 and 100 mg/kg per os (p.o.) acetylated minocycline (derivative Y, or CMM1) vs control.

For the next data set, the system named is DBA/2J mice. In words: Alcohol withdrawal, Handling Induced Convulsion scores. Format: in vivo. How it is done: Female and male DBA/2J mice were tested with CMM1, 100 mg/kg per p.o., at 2 hrs following 4 g/kg 20% ethanol in saline. Shown are the Handling Induced Convulsion scores, background subtracted and summed over 24 hours. […] Mean±SEM, n=5/group.

A further data set deals with AUD traits. As to conditions: seven tetracyclines tested; cited from earlier work.
For data set [3] the following is noted: cited from earlier work.
A further data set deals with DID ethanol consumption. Nature of the data set: DID ethanol consumption after "sterilization" of the GI microbiome. Type of data set: in vivo, mice. To be noted: ten-day ampicillin, neomycin, metronidazole, vancomycin; tigecycline 100 mg/kg i.p.; n=7. How it is done: A ten-day “sterilization” treatment with ampicillin, neomycin, metronidozale and vancomycin was used. Bedding was changed daily to avoid repopulation. DID was started on day 11 after one day of no metronidazole. Tigecycline was given at 100 mg/kg intraperitoneal (i.p.) n=7, mean±SEM.

Another data set concerns DID consumption. In words: DID consumption after intracerebroventricular (ICV) drug. Format: in vivo, mice. As to conditions: 3 ul of drug (9 mg/ml) icv 20 hrs prior to DID testing; n=9-11; p<0.01. How it is done: To test the hypothesis that tigecycline works at the level of the CNS, rather than the PNS, 3 ul of drug (9 mg/ml) was given icy 20 hrs prior to DID testing. n=9-11, mean±SEM, **p<0.01.

Take `CCCCOc1ccc(N(C)C)c2c1C(=O)C1=C(O)C3(O)C(=O)C(C(N)=O)=C(O)C(N(C)C)C3CC1C2` (stereo not shown) [Butyl Ether Minocycline, 10-Butoxy-4,7-bis-dimethylamino-3,12,12a-trihydroxy-1,11-dioxo-1,4,4a,5,5a,6,11,12a-octahydro-naphthacene-2-carboxylic acid amide]: the binge ethanol consumption entry in data set [1] is “reduction of binge ethanol consumption”.

For `CC(=O)NC(=O)c1c(OC(C)=O)c2c(c(N(C)C)c1OC(C)=O)CC1Cc3c(N(C)C)ccc(OC(C)=O)c3C(=O)C1=C2OC(C)=O` (stereo not shown) [CMM1], in the data set with E. coli, the “antibiotic activity (ZOI and CFU per disk)” value was “loss of antibiotic activity even at high doses”. Also, in data set [2], the “ethanol consumption (DID)” value is “significantly reduced drinking”. Also, in the data set with DBA/2J mice (100 mg/kg p.o. at 2 hrs following 4 g/kg 20% ethanol, female and male DBA/2J mice, n=5/group), the “alcohol withdrawal symptoms (Handling Induced Convulsion scores summed over 24 hours)” value is “reduced alcohol withdrawal symptoms”. Also, in the data set on DBA/2J mice (100 mg/kg p.o., DBA/2J mice), the “efficacy on withdrawal compared with minocycline” value is listed as “more effective than the parent drug, minocycline” and the “efficacy on withdrawal, females vs males” value is reported as “more effective in females”.

For `CC(=O)NC(=O)c1c(OC(C)=O)c2c(c(N(C)C)c1OC(C)=O)CC1Cc3c(N(C)C)ccc(OC(C)=O)c3C(=O)C1=C2O` (stereo not shown) [CMM2], the “antibiotic activity (ZOI and CFU per disk)” value in the data set on E. coli was “loss of antibiotic activity even at high doses”.

For `CC(=O)NC(=O)c1c(O)cc2c(c1O)C(O)=C1C(=O)c3c(OC(C)=O)ccc(N(C)C)c3CC1C2` (stereo not shown) [De Methyl Diacetate Minocycline, Acetic acid 9-acetylcarbamoyl-4-dimethylamino-8,10,11-trihydroxy-12-oxo-5,5a,6,12-tetrahydro-naphthacen-1-yl ester], in data set [1], the binge ethanol consumption entry is “reduction of binge ethanol consumption”.

Turning to `C[C@H]1c2cccc(O)c2C(=O)C2=C(O)[C@]3(O)C(=O)C(C(N)=O)=C(O)[C@@H](N(C)C)[C@@H]3[C@@H](O)[C@@H]21` [Doxycycline], the “efficacy against AUD traits” value in the data set on AUD traits is listed as “effective”.

In the case of `CCOc1ccc(N(C)C)c2c1C(=O)C1=C(O)C3(O)C(=O)C(C(N)=O)=C(O)C(N(C)C)C3CC1C2` (stereo not shown) [Ethyl Ether Minocycline, 4,7-Bis-dimethylamino-10-ethoxy-3,12,12a-trihydroxy-1,11-dioxo-1,4,4a,5,5a,6,11,12a-octahydro-naphthacene-2-carboxylic acid amide], the binge ethanol consumption result in data set [1] is listed as “reduction of binge ethanol consumption”.

Consider `COc1ccc(N(C)C)c2c1C(=O)C1=C(O)C3(O)C(=O)C(C(N)=O)=C(O)C(N(C)C)C3CC1C2` (stereo not shown) [Methyl Ether Minocycline, 4,7-Bis-dimethylamino-3,12,12a-trihydroxy-10-methoxy-1,11-dioxo-1,4,4a,5,5a,6,11,12a-octahydro-naphthacene-2-carboxylic acid amide], for which, in data set [1], the binge ethanol consumption result is “reduction of binge ethanol consumption”.

With `COc1ccc(N(C)C)c2c1C(=O)C1=C(O)c3c(O)c(C(=O)NC(C)=O)c(O)c(N(C)C)c3CC1C2` (stereo not shown) [Methyl Ether N-Monoacetate Minocycline, 4,7-Bis-dimethylamino-1,3,12-trihydroxy-10-methoxy-11-oxo-5,5a,6,11-tetrahydro-naphthacene-2-carboxylic acid acetyl-amide], the binge ethanol consumption result in data set [1] was “reduction of binge ethanol consumption”.

Consider `COc1ccc(N(C)C)c2c1C(=O)C1=C(O)c3c(c(N(C)C)c(OC(C)=O)c(C(=O)NC(C)=O)c3OC(C)=O)CC1C2` (stereo not shown) [Methyl Ether Tri Acetate Minocycline, Acetic acid 4-acetoxy-3-acetylcarbamoyl-1,10-bis-dimethylamino-5-hydroxy-7-methoxy-6-oxo-6,11,11a,12-tetrahydro-naphthacen-2-yl ester], for which the binge ethanol consumption result in data set [1] is reported as “reduction of binge ethanol consumption”.

On to `CN(C)c1ccc(O)c2c1CC1CC3C(N(C)C)C(O)=C(C(N)=O)C(=O)C3(O)C(O)=C1C2=O` (stereo not shown) [Minocycline, 4.7-Bis-dimcthylamino-3,10,12,12a-tctrahydroxy-1,11-dioxo-1,4.4a,5,5a,6,11,12 a-octahydro-naphthacene-2-carboxylic acid amide], for which the “efficacy against AUD traits” value in the data set with AUD traits is given as “effective”.

Consider `CN(C)[C@@H]1C(O)=C(C(N)=O)C(=O)[C@@]2(O)C(O)=C3C(=O)c4c(O)cccc4[C@@](C)(O)[C@H]3[C@H](O)[C@@H]12` [Oxytetracycline], for which, in data set [3], the LogD is on record as −4.25 and the LogP is −1.5.

Regarding `CC(=O)NC(=O)c1c(OC(C)=O)c2c(c(N(C)C)c1OC(C)=O)CC1Cc3c(N(C)C)ccc(OC(C)=O)c3C(=O)C1=C2OC(C)=O` (stereo not shown) [Penta Acetyl Minocycline, Acetic acid 3,10,12-triacetoxy-2-acetylcarbamoyl-4,7-bis-dimethylamino-11-oxo-5,5a,6,11-tetrahydro-naphthacen-1-yl ester], the binge ethanol consumption entry in data set [1] is “reduction of binge ethanol consumption”.

As to `CCCOc1ccc(N(C)C)c2c1C(=O)C1=C(O)C3(O)C(=O)C(C(N)=O)=C(O)C(N(C)C)C3CC1C2` (stereo not shown) [Propyl Ether Minocycline, 4,7-Bis-dimethylamino-3,12,12a-trihydroxy-1,11-dioxo-10-propoxy-1,4,4a,5,5a,6,11,12a-octahydro-naphthacene-2-carboxylic acid amide], the binge ethanol consumption result in data set [1] is recorded as “reduction of binge ethanol consumption”.

Take `CC(=O)NC(=O)c1c(OC(C)=O)c2c(c(N(C)C)c1OC(C)=O)CC1Cc3c(N(C)C)ccc(OC(C)=O)c3C(=O)C1=C2O` (stereo not shown) [Tetra Acetyl Minocycline, Acetic acid 3,10-diacetoxy-2-acetylcarbamoyl-4,7-bis-dimethylamino-12-hydroxy-11-oxo-5,5a,6,11-tetrahydro-naphthacen-1-yl ester]: the binge ethanol consumption result in data set [1] is given as “reduction of binge ethanol consumption”.

As to `CN(C)c1cc(NC(=O)CNC(C)(C)C)c(O)c2c1C[C@H]1C[C@H]3[C@H](N(C)C)C(O)=C(C(N)=O)C(=O)[C@@]3(O)C(O)=C1C2=O` [Tigecycline], the “DID ethanol consumption / tigecycline efficacy, sterilized vs not” value in the data set with DID ethanol consumption is “No significant difference”. For the same compound, in the data set on DID consumption, the DID consumption entry is “reduced DID consumption”. The “efficacy against AUD traits” value in the data set on AUD traits is reported as “effective”.

Values taken from patent US12486219B2, “Modified tetracyclines for treatment of alcohol use disorder, pain and other disorders involving potential inflammatory processes” (Texas Tech University System, priority 2018, dated 2025).
